In brackets after ≈: the same amount, converted by molar mass. Where a SMILES comes first, the peptide text is derived from it. Bridges are numbered along the chain shown (N, C = ends). Roman numbers before positions name the chains, in order. [ ]: non-standard residue; d: D form. d(hSer) = N[C@H](CCO)C(=O)O; dDab = NCC[C@@H](N)C(=O)O; Dab = NCC[C@H](N)C(=O)O; Abu = CC[C@H](N)C(=O)O; Dap = NC[C@H](N)C(=O)O
Legend:
male ICR mice = experiment: Tolerability in a mouse model (Maximum Tolerated Dose assay); format: in vivo; conditions: groups of 3
Summary of the method: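 Groups of 3 male ICR mice weighing 23±3 g received two subcutaneous doses, 12 h apart, of 30 or 40 mg/kg in saline adjusted to pH 6.5-7.6. Observation for 30 min after each dose covered autonomic effects and acute toxicity, including death.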

[1] = system: human red blood cells (hRBC); experiment: Hemolysis; format: cell-based; conditions: red cells of human, 1 h, 200
Summary of the method: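 Percent hemolysis relative to 2% Triton X-100 (100%) and PBS/10% water (0%), from blank-corrected OD540 of diluted supernatants. Peptides tested at 200 μg/mL against 20% (v/v) washed human erythrocytes, 1 h, 37° C, shaking at 300 rpm.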

[2] = system: Enterobacter cloacae 848840; format: cell-based; conditions: 848840
Summary of the method: (§1)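 MIC in μg/mL, read as absence of visible growth after 18-20 h incubation at 35° C, by standard CLSI microdilution. Peptides tested in two-fold serial dilution in cation-adjusted MH-II broth containing 0.002% (final) Polysorbate 80, against roughly 10^6 CFU/mL inocula.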

[3] = system: Klebsiella pneumoniae 968733; format: cell-based; conditions: 968733
Summary of the method: as §1

[4] = system: Pseudomonas aeruginosa ATCC 27853; format: cell-based; conditions: ATCC 27853
Summary of the method: as §1

[5] = system: Acinetobacter baumannii 872842; format: cell-based; conditions: 872842
Summary of the method: as §1

[6] = system: Acinetobacter baumannii DSM 30008; format: cell-based; conditions: DSM 30008
Summary of the method: as §1

Escherichia coli 926415 = format: cell-based; conditions: 926415
Summary of the method: as §1

[7] = system: Escherichia coli ATCC 25922; format: cell-based; conditions: ATCC 25922
Summary of the method: as §1

[8] = system: Klebsiella pneumoniae SSI #3010; format: cell-based; conditions: SSI #3010
Summary of the method: as §1

[9] = 2 × 40 mg/kg s.c. at a 12-hr interval
[10] = 2 × 30 mg/kg s.c. at a 12-hr interval

| SMILES | Mortality and dose (male ICR mice; [9]) | Hemolysis at 200 μg/mL [1] | MIC [2] | MIC [3] | MIC [4] | MIC [5] | MIC [6] | MIC (Escherichia coli 926415) | MIC [7] | MIC [8] | Mortality and dose (male ICR mice; [10]) | Pseudomonas aeruginosa ATCC 27853 MIC [4] | Acinetobacter baumannii DSM 30008 MIC [6] | Escherichia coli ATCC 25922 MIC [7] | Klebsiella pneumoniae SSI #3010 MIC [8] |
| --- | --- | --- | --- | --- | --- | --- | --- | --- | --- | --- | --- | --- | --- | --- | --- |
| CC[C@@H]1NC(=O)[C@@H](CC(C)C)NC(=O)[C@H](CCN)NC(=O)[C@@H](NC(=O)[C@H](CN)NC(=O)[C@@H](NC(=O)[C@H](CCN)NC(=O)CC[C@@H]2NC(=O)CNC(=O)[C@H](Cc3ccc(O)cc3)NC(=O)[C@@H](NC(=O)[C@@H](NC(C)=O)C(C)C)CSSC[C@@H](C(=O)N[C@@H](CO)C(N)=O)NC(=O)[C@H](C(C)C)NC(=O)[C@H](CCN)NC(=O)[C@H](Cc3c[nH]c4ccccc34)NC(=O)[C@H](CCN)NC(=O)[C@@H](CCO)NC2=O)[C@@H](C)O)CCNC(=O)[C@H]([C@@H](C)O)NC(=O)[C@H](CCN)NC(=O)[C@H](CCN)NC1=O [Ex. 298] (I: Ac-VCYGE[d(hSer)][Dab]W[Dab]VCS-NH2 / II: [Dab]T[Dap][Dab][Dab][dL][Abu][Dab][Dab]T; disulfide I:2-I:11; amide I:5-II:N; lactam II:4-II:C) | 0/3 died at 2 × 40 mg/kg | <1% | 0.25 µg/mL (≈ 0.106 µM) | 1 µg/mL (≈ 0.425 µM) | 0.25 µg/mL (≈ 0.106 µM) | 0.25 µg/mL (≈ 0.106 µM) | 0.0625 µg/mL (≈ 0.0265 µM) | 0.5 µg/mL (≈ 0.212 µM) | 0.03125 µg/mL (≈ 0.0133 µM) | 0.0625 µg/mL (≈ 0.0265 µM) |  |  |  |  |  |
| CC(=O)N[C@H](C(=O)N[C@H](C(=O)N[C@@H](Cc1ccc(O)cc1)C(=O)N[C@H]1CSSC[C@@H](C(=O)N[C@H](C(=O)N[C@@H](C)C(=O)N[C@H](C(N)=O)[C@@H](C)O)C(C)C)NC(=O)[C@H](Cc2c[nH]c3ccccc23)NC(=O)[C@H](CO)NC(=O)[C@@H](CCN)NC(=O)[C@H](CCC(=O)N[C@@H](CCN)C(=O)N[C@H](C(=O)N[C@@H](CN)C(=O)N[C@H]2CCNC(=O)[C@H]([C@@H](C)O)NC(=O)[C@H](CCN)NC(=O)[C@H](CCN)NC(=O)[C@H](CC(C)C)NC(=O)[C@@H](CC(C)C)NC(=O)[C@H](CCN)NC2=O)[C@@H](C)O)NC1=O)[C@@H](C)O)C(C)C [Ex. 219] (I: Ac-VTYCE[dDab]SWCVAT-NH2 / II: [Dab]T[Dap][Dab][Dab][dL]L[Dab][Dab]T; disulfide I:4-I:9; amide I:5-II:N; lactam II:4-II:C) |  | <1% | 0.125 µg/mL (≈ 0.0521 µM) | 0.5 µg/mL (≈ 0.209 µM) | 0.125 µg/mL (≈ 0.0521 µM) | 0.125 µg/mL (≈ 0.0521 µM) | 0.03125 µg/mL (≈ 0.013 µM) | 0.25 µg/mL (≈ 0.104 µM) | 0.03125 µg/mL (≈ 0.013 µM) | 0.0625 µg/mL (≈ 0.0261 µM) | 0/3 died at 2 × 30 mg/kg |  |  |  |  |
| CC(=O)N[C@H](C(=O)N[C@H]1CSSC[C@@H](C(=O)N[C@@H](CO)C(N)=O)NC(=O)[C@H](C(C)C)NC(=O)[C@H](CCC(=O)O)NC(=O)[C@H](Cc2c[nH]c3ccccc23)NC(=O)[C@H](CO)NC(=O)[C@@H](CCN)NC(=O)[C@H](CCC(=O)N[C@@H](CCN)C(=O)N[C@H](C(=O)N[C@@H](CN)C(=O)N[C@H]2CCNC(=O)[C@H]([C@@H](C)O)NC(=O)[C@H](CCN)NC(=O)[C@H](CCN)NC(=O)[C@H](CC(C)C)NC(=O)[C@@H](CC(C)C)NC(=O)[C@H](CCN)NC2=O)[C@@H](C)O)NC(=O)[C@H](CCN)NC(=O)[C@H](Cc2ccc(O)cc2)NC1=O)C(C)C [Ex. 150] (I: Ac-VCY[Dab]E[dDab]SWEVCS-NH2 / II: [Dab]T[Dap][Dab][Dab][dL]L[Dab][Dab]T; disulfide I:2-I:11; amide I:5-II:N; lactam II:4-II:C) |  | <1% | 0.125 µg/mL (≈ 0.0512 µM) | 0.5 µg/mL (≈ 0.205 µM) | 0.125 µg/mL (≈ 0.0512 µM) | 0.125 µg/mL (≈ 0.0512 µM) | 0.0625 µg/mL (≈ 0.0256 µM) | 0.25 µg/mL (≈ 0.102 µM) | 0.03125 µg/mL (≈ 0.0128 µM) | 0.125 µg/mL (≈ 0.0512 µM) | 0/3 died at 2 × 30 mg/kg |  |  |  |  |
| CC(=O)N[C@H](C(=O)N[C@H]1CSSC[C@@H](C(=O)N[C@@H](CO)C(N)=O)NC(=O)[C@H](C(C)C)NC(=O)[C@H](CO)NC(=O)[C@H](Cc2c[nH]c3ccccc23)NC(=O)[C@H](CO)NC(=O)[C@@H](CCN)NC(=O)[C@H](CCC(=O)N[C@@H](CCN)C(=O)N[C@H](C(=O)N[C@@H](CN)C(=O)N[C@H]2CCNC(=O)[C@H]([C@@H](C)O)NC(=O)[C@H](CCN)NC(=O)[C@H](CCN)NC(=O)[C@H]([C@@H](C)O)NC(=O)[C@@H](CC(C)C)NC(=O)[C@H](CCN)NC2=O)[C@@H](C)O)NC(=O)[C@H](CCN)NC(=O)[C@H](Cc2ccc(O)cc2)NC1=O)C(C)C [Ex. 331] (I: Ac-VCY[Dab]E[dDab]SWSVCS-NH2 / II: [Dab]T[Dap][Dab][Dab][dL]T[Dab][Dab]T; disulfide I:2-I:11; amide I:5-II:N; lactam II:4-II:C) | 0/3 died at 2 × 40 mg/kg | <1% | 0.25 µg/mL (≈ 0.105 µM) | 0.5 µg/mL (≈ 0.209 µM) |  | 0.25 µg/mL (≈ 0.105 µM) |  | 0.5 µg/mL (≈ 0.209 µM) |  |  |  | 0.125 µg/mL | 0.125 µg/mL | 0.0625 µg/mL | 0.0625 µg/mL |
| CC[C@@H]1NC(=O)[C@@H](CC(C)C)NC(=O)[C@H](CCN)NC(=O)[C@@H](NC(=O)[C@H](CN)NC(=O)[C@@H](NC(=O)[C@H](CCN)NC(=O)CC[C@@H]2NC(=O)[C@H](CO)NC(=O)[C@H](Cc3ccc(O)cc3)NC(=O)[C@@H](NC(=O)[C@@H](NC(C)=O)C(C)C)CSSC[C@@H](C(=O)N[C@@H](CO)C(N)=O)NC(=O)[C@H]([C@@H](C)CC)NC(=O)[C@H](CO)NC(=O)[C@H](Cc3c[nH]c4ccccc34)NC(=O)[C@H](CO)NC(=O)[C@@H](CCN)NC2=O)[C@@H](C)O)CCNC(=O)[C@H]([C@@H](C)O)NC(=O)[C@H](CCN)NC(=O)[C@H](CCN)NC1=O [Ex. 260] (I: Ac-VCYSE[dDab]SWSICS-NH2 / II: [Dab]T[Dap][Dab][Dab][dL][Abu][Dab][Dab]T; disulfide I:2-I:11; amide I:5-II:N; lactam II:4-II:C) |  | <1% | 0.0625 µg/mL (≈ 0.0264 µM) | 0.5 µg/mL (≈ 0.211 µM) | 0.0625 µg/mL (≈ 0.0264 µM) | 0.0625 µg/mL (≈ 0.0264 µM) | 0.01562 µg/mL (≈ 0.00659 µM) | 0.5 µg/mL (≈ 0.211 µM) | 0.01562 µg/mL (≈ 0.00659 µM) | 0.0625 µg/mL (≈ 0.0264 µM) | 0/3 died at 2 × 30 mg/kg |  |  |  |  |
